The assay has as its target Human MGAT-2 (Homo sapiens (Human), UniProt Q3SYC2). The experiment in a line: MGAT LCMS Assay. The assay is classed as biochemical. As to conditions: recombinant MGAT-2 membranes expressed in Sf9 cells; 100 μM 2-oleoylglycerol, 15 μM oleoyl-Coenzyme A; LC/MS of diolein; read-out: h-MGAT LCMS IC50. The protocol: Assay plates were run through a fully automated robotics system and shaken for 5 seconds every minute for a total 10 minutes. The reactions were then quenched with 120 μL of ice cold methanol containing 1 μg/mL 1,2-distearoyl-rac-glycerol as the internal standard. Plates were shaken for 2 minutes and spun down to remove protein precipitation. After the spin, samples were transferred to LC/MS compatible PCR plates. For LC/MS analysis, a ThermoFisher Surveyor pump, utilizing a Waters Symmetry C8, 50×2.1 mm column, was used for the chromatography of enzyme products. The buffer system consists of 0.1% formic acid in water with a mobile phase consisting 0.1% formic acid in methanol. The shallow gradient is 90-100% mobile phase in 0.2 min with a total run time of 2.3 min. The first 0.5 minutes of each injection was diverted to waste to eliminate the presence of Phosphate buffer in the enzymatic reaction. The column was run at 0.6 mL/min and a temperature of 65° C. Mass spectrometry analysis of the samples was performed on a ThermoFisher Quantum Triple quad utilizing APCI (+) as the mode of ionization. […] The ratio of Diolein to internal standard (Peak Area Ratio) is utilized to calculate IC50 values.

Structures are written as SMILES.

The record followed here is US9365558B2 (BRISTOL-MYERS SQUIBB COMPANY, priority 2013, dated 2016).

Human MGAT-2, sequence (Q3SYC2 whole entry): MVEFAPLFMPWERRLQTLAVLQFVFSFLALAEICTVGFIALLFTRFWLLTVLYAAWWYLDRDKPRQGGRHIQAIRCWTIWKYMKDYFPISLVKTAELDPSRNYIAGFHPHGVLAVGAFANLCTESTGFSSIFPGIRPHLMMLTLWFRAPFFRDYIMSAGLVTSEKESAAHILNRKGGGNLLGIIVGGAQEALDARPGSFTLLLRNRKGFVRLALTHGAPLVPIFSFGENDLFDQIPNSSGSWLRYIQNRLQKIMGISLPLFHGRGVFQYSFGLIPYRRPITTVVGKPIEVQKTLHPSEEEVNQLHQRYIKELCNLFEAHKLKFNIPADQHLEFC

One may read the IC50 as the concentration at which inhibition is half-maximal. In the case of `CCS(=O)(=O)NC(=O)C1=C(c2ccc(C)cc2)C[C@](c2ccc(OCCCCCC(F)(F)F)cc2)(C(F)(F)F)NC1=O` [Example 1, (S)—N-(Ethylsulfonyl)-2-oxo-4-(p-tolyl)-6-(4-((6,6,6-trifluorohexyl)oxy)phenyl)-6-(trifluoromethyl)-1,2,5,6-tetrahydropyridine-3-carboxamide], the IC50 is 17 nM.

Take `CCCCCCC#C[C@]1(C(F)(F)F)CC(c2ccc(C)cc2)=C(C(=O)NS(=O)(=O)C2CC2)C(=O)N1` [Example 2]: the IC50 worked out at 20 nM.

On to `Cc1ccc(C2=C(C(=O)NS(=O)(=O)C3CC3)C(=O)N[C@@](c3ncc(CCCCCCC(F)(F)F)s3)(C(F)(F)F)C2)cc1` [Example 3], for which the IC50 worked out at 9 nM.

Turning to `CN(C)c1ccc(C2=C(C(=O)NS(=O)(=O)C3CC3)C(=O)N[C@@](c3ccc(OCCCCCC(F)(F)F)cc3)(C(F)(F)F)C2)cc1` [Example 4], the IC50 is 17 nM.

In the case of `CS(=O)(=O)NC(=O)C1=C(c2ccc(OC(F)F)cc2)C[C@](c2ccc(OCCCCCC(F)(F)F)cc2)(C(F)(F)F)NC1=O` [Example 5], the IC50 is 38 nM.

For the molecule `Cc1ccc(C2=C(C(=O)NS(=O)(=O)C3CC3)C(=O)N[C@@](c3ccc(OCCCCCC(F)(F)F)cc3F)(C(F)(F)F)C2)cc1` [Example 6], the IC50 stood at 4 nM.

For the molecule `CCc1ccc(C2=C(C(=O)NS(C)(=O)=O)C(=O)N[C@@](c3ccc(OCCCC(F)(F)F)cc3)(C(F)(F)F)C2)s1` [Example 7], the IC50 is 12 nM.

Take `CCS(=O)(=O)NC(=O)C1=C(c2ccc(OC(F)F)cc2)C[C@](c2ccc(OCCCCCC(F)(F)F)cc2)(C(F)(F)F)NC1=O` [Example 8]: the IC50 is 33 nM.

On to `Cc1ccc(C2=C(C(=O)NS(C)(=O)=O)C(=O)N[C@@](c3ccc(OCCCCCC(F)(F)F)cc3)(C(F)(F)F)C2)cc1` [Example 9], for which the IC50 amounted to 16 nM.

On to `CCc1ccc(C2=C(C(=O)NS(=O)(=O)C3CC3)C(=O)N[C@@](c3ccc(OCCCCCC(F)(F)F)cc3)(C(F)(F)F)C2)s1` [Example 10], for which the IC50 is 5 nM.

Consider `Cc1ccc(C2=C(C(=O)NS(=O)(=O)C3CC3)C(=O)N[C@@](c3ccc(OCCCCCC(F)(F)F)cc3)(C(F)(F)F)C2)cc1` [Example 11], for which the IC50 amounted to 12 nM.

`CCCCCCC#C[C@]1(C(F)(F)F)CC(c2ccc(OC(F)F)cc2)=C(C(=O)NS(C)(=O)=O)C(=O)N1` [Example 12]: the IC50 came out at 24 nM.

On to `Cc1ccc(C2=C(C(=O)NS(C)(=O)=O)C(=O)N[C@@](c3ccc(OCCCC(F)(F)F)cc3)(C(F)(F)F)C2)cc1` [Example 13], for which the IC50 worked out at 6 nM.

With `CS(=O)(=O)NC(=O)C1=C(c2ccc(OC(F)F)cc2)C[C@](c2ccc(OCCCC(F)(F)F)cc2)(C(F)(F)F)NC1=O` [Example 14], the IC50 came to 54 nM.

In the case of `CCCCCCC#C[C@]1(C(F)(F)F)CC(c2ccc(C)cc2)=C(C(=O)NS(C)(=O)=O)C(=O)N1` [Example 15], the IC50 stood at 4 nM.

Regarding `Cc1ccc(C2=C(C(=O)NS(=O)(=O)C3CC3)C(=O)N[C@@](c3ccc(OCCCC(F)(F)F)cc3)(C(F)(F)F)C2)cc1` [Example 16], the IC50 was 18 nM.

With `Cc1ccc(C2=C(C(=O)NS(C)(=O)=O)C(=O)N[C@@](c3ccc(OCc4ccccc4)cc3)(C(F)(F)F)C2)cc1` [Example 17], the IC50 was determined as 26 nM.

For `COc1ccc(C2=C(C(=O)NS(=O)(=O)C3CC3)C(=O)N[C@@](c3ccc(OCCCCCC(F)(F)F)cc3)(C(F)(F)F)C2)cn1` [Example 18], the IC50 is 52 nM.

For `CCS(=O)(=O)NC(=O)C1=C(c2ccc(C)cc2)C[C@](c2ccc(OCCCC(F)(F)F)cc2)(C(F)(F)F)NC1=O` [Example 19], the IC50 turned out to be 17 nM.

Regarding `CC(C)(C)c1ccc(C2=C(C(=O)NS(=O)(=O)C3CC3)C(=O)N[C@@](c3ccc(OCCCCCC(F)(F)F)cc3)(C(F)(F)F)C2)cc1` [Example 20], the IC50 worked out at 4 nM.

In the case of `CC(C)(C)c1ccc(C2=C(C(=O)NS(C)(=O)=O)C(=O)N[C@@](c3ccc(OCCCCCC(F)(F)F)cc3)(C(F)(F)F)C2)cc1` [Example 21], the IC50 is 7 nM.

For `COc1ccc(C2=C(C(=O)NS(=O)(=O)C3CC3)C(=O)N[C@@](c3ccc(OCCCCCC(F)(F)F)cc3F)(C(F)(F)F)C2)cc1` [Example 22], the IC50 came out at 3 nM.

For the molecule `O=C1N[C@@](c2ccc(OCCCCCC(F)(F)F)cc2)(C(F)(F)F)CC(c2ccc(CC3CC3)cc2)=C1C(=O)NS(=O)(=O)C1CC1` [Example 23], the IC50 was determined as 4 nM.

Take `Cc1ccc(C2=C(C(=O)NS(C)(=O)=O)C(=O)N[C@](C)(CCC(C)C)C2)cc1` [Example 24]: the IC50 amounted to 114 nM.

For `CN(C)c1ccc(C2=C(C(=O)NS(C)(=O)=O)C(=O)N[C@@](c3ccc(OCCCC(F)(F)F)cc3)(C(F)(F)F)C2)cc1` [Example 25], the IC50 came out at 24 nM.

Regarding `CC(C)(C)c1ccc(C2=C(C(=O)NS(C)(=O)=O)C(=O)N[C@@](c3ccc(OCCCC(F)(F)F)cc3)(C(F)(F)F)C2)cc1` [Example 26], the IC50 stood at 19 nM.

For the molecule `COc1ccc(C2=C(C(=O)NS(=O)(=O)C3CC3)C(=O)N[C@@](c3ccc(OCCCC(F)(F)F)cc3)(C(F)(F)F)C2)cc1` [Example 27], the IC50 amounted to 8 nM.

For the molecule `Cc1ccc(C2=C(C(=O)NS(=O)(=O)C(C)(C)C)C(=O)N[C@@](c3ccc(OCCCC(F)(F)F)cc3)(C(F)(F)F)C2)cc1` [Example 28], the IC50 is 348 nM.

Consider `Cc1ccc(C2=C(C(=O)NS(=O)(=O)c3ccccc3)C(=O)N[C@@](c3ccc(OCCCC(F)(F)F)cc3)(C(F)(F)F)C2)cc1` [Example 29], for which the IC50 is 84 nM.

Turning to `Cc1ccc(C2=C(C(=O)NS(=O)(=O)C(F)(F)F)C(=O)N[C@@](c3ccc(OCCCC(F)(F)F)cc3)(C(F)(F)F)C2)cc1` [Example 30], the IC50 stood at 5 nM.

Consider `Cc1ccc(C2=C(C(=O)NS(=O)(=O)N(C)C)C(=O)N[C@@](c3ccc(OCCCCCC(F)(F)F)cc3)(C(F)(F)F)C2)cc1` [Example 32], for which the IC50 was determined as 25 nM.

Regarding `Cc1ccc(C2=C(C(=O)NS(=O)(=O)C3CC3)C(=O)N[C@@](C#CCCCCCC(F)(F)F)(C(F)(F)F)C2)cc1` [Example 33], the IC50 is 11 nM.

`COc1ccc(C2=C(C(=O)NS(C)(=O)=O)C(=O)N[C@@](c3ccc(OCCCC(F)(F)F)cc3)(C(F)(F)F)C2)cc1` [Example 34]: the IC50 was 295 nM.

Regarding `COc1ccc(C2=C(C(=O)NS(=O)(=O)N(C)C)C(=O)N[C@@](c3ccc(OCCCC(F)(F)F)cc3)(C(F)(F)F)C2)cc1` [Example 35], the IC50 was determined as 353 nM.

For the molecule `COc1ccc(C2=C(C(=O)NS(C)(=O)=O)C(=O)N[C@@](c3ccc(OCCCCCC(F)(F)F)cc3F)(C(F)(F)F)C2)cc1` [Example 36], the IC50 came out at 52 nM.

For `O=C1N[C@@](c2ccc(OCCCCCC(F)(F)F)cc2)(C(F)(F)F)CC(c2ccc(OC(F)F)cc2)=C1C(=O)NS(=O)(=O)C1CC1` [Example 37], the IC50 amounted to 6 nM.

Turning to `COc1ccc(C2=C(C(=O)NS(=O)(=O)C3CC3)C(=O)N[C@@](c3ccc(OCCCCCC(F)(F)F)cc3)(C(F)(F)F)C2)cc1` [Example 38], the IC50 amounted to 43 nM.

In the case of `CN(C)S(=O)(=O)NC(=O)C1=C(c2ccc(OC(F)F)cc2)C[C@](c2ccc(OCCCCCC(F)(F)F)cc2)(C(F)(F)F)NC1=O` [Example 39], the IC50 was determined as 23 nM.

As to `CCCCCCCc1cnc([C@]2(C(F)(F)F)CC(c3ccc(C)cc3)=C(C(=O)NS(=O)(=O)C3CC3)C(=O)N2)s1` [Example 40], the IC50 worked out at 2 nM.

Consider `CCCCCCCc1cnc([C@@]2(C(F)(F)F)CC(c3ccc(C)cc3)=C(C(=O)NS(=O)(=O)C3CC3)C(=O)N2)s1` [Example 41], for which the IC50 was determined as 235 nM.

As for `CC(C)n1ccc(C2=C(C(=O)NS(=O)(=O)C3CC3)C(=O)N[C@@](c3ccc(OCCCC(F)(F)F)cc3F)(C(F)(F)F)C2)n1` [Example 42], the IC50 came to 8 nM.

As for `CC(C)n1ccc(C2=C(C(=O)NS(C)(=O)=O)C(=O)N[C@@](c3ccc(OCCCC(F)(F)F)cc3F)(C(F)(F)F)C2)n1` [Example 43], the IC50 was 20 nM.

As to `CS(=O)(=O)NC(=O)C1=C(c2ccn(C3CCC3)n2)C[C@](c2ccc(OCCCC(F)(F)F)cc2F)(C(F)(F)F)NC1=O` [Example 44], the IC50 is 7 nM.

Regarding `O=C1N[C@@](c2ccc(OCCCC(F)(F)F)cc2F)(C(F)(F)F)CC(c2ccn(C3CCC3)n2)=C1C(=O)NS(=O)(=O)C1CC1` [Example 45], the IC50 was 17 nM.

Take `O=C1N[C@@](c2ccc(OCCCC(F)(F)F)cc2F)(C(F)(F)F)CC(c2ccn(C3CC3)n2)=C1C(=O)NS(=O)(=O)C1CC1` [Example 46]: the IC50 came out at 81 nM.

With `CS(=O)(=O)NC(=O)C1=C(c2ccn(C3CC3)n2)C[C@](c2ccc(OCCCC(F)(F)F)cc2F)(C(F)(F)F)NC1=O` [Example 47], the IC50 stood at 16 nM.

Turning to `CCn1ccc(C2=C(C(=O)NS(=O)(=O)C3CC3)C(=O)N[C@@](c3ccc(OCCCC(F)(F)F)cc3F)(C(F)(F)F)C2)n1` [Example 48], the IC50 came to 47 nM.

`CC(C)n1ccc(C2=C(C(=O)NS(=O)(=O)C3CC3)C(=O)N[C@@](c3ccc(CCCCC(F)(F)F)cc3F)(C(F)(F)F)C2)c1` [Example 51]: the IC50 came to 3 nM.

For the molecule `O=C1N[C@@](c2ccc(CCCCC(F)(F)F)cc2F)(C(F)(F)F)CC(c2ccn(CC3CC3)n2)=C1C(=O)NS(=O)(=O)C1CC1` [Example 52], the IC50 amounted to 10 nM.

Turning to `CCn1ccc(C2=C(C(=O)NS(=O)(=O)C3CC3)C(=O)N[C@@](c3ccc(CCCCC(F)(F)F)cc3F)(C(F)(F)F)C2)n1` [Example 53], the IC50 stood at 89 nM.
